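Five compound concentrations were applied to cells in 96-well plates for 48 hours; endpoints were derived by simple linear interpolation of the resulting dose-response curve. The concentration for full growth arrest is given as TGI.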
Columns and labels:
Experiment in all cases: NCI anticancer screen, dose series, 48 h
DLD-1 colon = system: DLD-1 colon
DMS 114 small cell lung = system: DMS 114 small cell lung
HCC-2998 colon = system: HCC-2998 colon
HOP-18 NSCLC = system: HOP-18 NSCLC
KM12 colon = system: KM12 colon
KM20L2 colon = system: KM20L2 colon
LXFL 529 NSCLC = system: LXFL 529 NSCLC
M19-MEL melanoma = system: M19-MEL melanoma
NCI-H522 lung = system: NCI-H522 lung
SNB-75 CNS = system: SNB-75 CNS
SNB-78 CNS = system: SNB-78 CNS
BT-549 breast = system: BT-549 breast
HOP-92 NSCLC = system: HOP-92 NSCLC
HS 578T breast = system: HS 578T breast
MDA-MB-231 breast = system: MDA-MB-231 breast
SK-MEL-28 melanoma = system: SK-MEL-28 melanoma
SK-MEL-5 melanoma = system: SK-MEL-5 melanoma
T-47D breast = system: T-47D breast
TK-10 renal = system: TK-10 renal
U251 CNS = system: U251 CNS

Row | SMILES | TGI (DLD-1 colon) | TGI (DMS 114 small cell lung) | TGI (HCC-2998 colon) | TGI (HOP-18 NSCLC) | TGI (KM12 colon) | TGI (KM20L2 colon) | TGI (LXFL 529 NSCLC) | TGI (M19-MEL melanoma) | TGI (NCI-H522 lung) | TGI (SNB-75 CNS) | TGI (SNB-78 CNS) | TGI (BT-549 breast) | TGI (HOP-92 NSCLC) | TGI (HS 578T breast) | TGI (MDA-MB-231 breast) | TGI (SK-MEL-28 melanoma) | TGI (SK-MEL-5 melanoma) | TGI (T-47D breast) | TGI (TK-10 renal) | TGI (U251 CNS)
1 | CC(C)N=C(N)NC#N | > 100 µM | > 100 µM | > 100 µM | > 100 µM | > 100 µM | > 100 µM | > 100 µM | > 100 µM | > 100 µM | > 100 µM | > 100 µM | – | – | – | – | – | – | – | – | –
2 | COc1cc(-c2cc(=O)c3c(O)c(CC=C(C)C)c(O)cc3o2)ccc1O | – | – | – | – | – | – | – | – | – | – | – | > 50 µM | > 50 µM | > 50 µM | > 50 µM | 26.7 µM | > 50 µM | 40.8 µM | > 50 µM | > 50 µM
